Laboratory results published in ChEMBL document CHEMBL1201862, “PubChem BioAssay data set” (2004).
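These data come from cells grown in 96-well plates and exposed to compound for 48 hours at five concentrations. The concentration for 50% growth inhibition is given as GI50.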 The source made the active and inactive calls. Cut-off read from the data, not from the text of the source: active = GI50 up to about 1.1 µM and inactive = higher.

Key:
Experiment in all cases: DTP human tumour cell line panel, 48 h
786-0 = system: 786-0
A498 = system: A498
A549 = system: A549
ACHN = system: ACHN
CCRF-CEM = system: CCRF-CEM
HL-60 = system: HL-60
IGROV-1 = system: IGROV-1
K562 = system: K562
M14 = system: M14
MDA-MB-231 = system: MDA-MB-231
MDA-N = system: MDA-N
NCI-H226 = system: NCI-H226
OVCAR-3 = system: OVCAR-3
OVCAR-5 = system: OVCAR-5
OVCAR-8 = system: OVCAR-8
SF-295 = system: SF-295
SW-620 = system: SW-620
UACC-257 = system: UACC-257
UO-31 = system: UO-31
HCC 2998 = system: HCC 2998

| SMILES | GI50 (786-0) | GI50 (A498) | GI50 (A549) | GI50 (ACHN) | GI50 (CCRF-CEM) | GI50 (HL-60) | GI50 (IGROV-1) | GI50 (K562) | GI50 (M14) | GI50 (MDA-MB-231) | GI50 (MDA-N) | GI50 (NCI-H226) | GI50 (OVCAR-3) | GI50 (OVCAR-5) | GI50 (OVCAR-8) | GI50 (SF-295) | GI50 (SW-620) | GI50 (UACC-257) | GI50 (UO-31) | GI50 (HCC 2998) |
| --- | --- | --- | --- | --- | --- | --- | --- | --- | --- | --- | --- | --- | --- | --- | --- | --- | --- | --- | --- | --- |
| Cc1cn(C2CCN(CC3COC(C)(C)O3)O2)c(=O)[nH]c1=O (stereo not drawn) | > 100 µM (inactive) | > 100 µM (inactive) | > 100 µM (inactive) | > 100 µM (inactive) | > 100 µM (inactive) | > 100 µM (inactive) | > 100 µM (inactive) | > 100 µM (inactive) | > 100 µM (inactive) | > 100 µM (inactive) | > 100 µM (inactive) | > 100 µM (inactive) | > 100 µM (inactive) | > 100 µM (inactive) | > 100 µM (inactive) | > 100 µM (inactive) | > 100 µM (inactive) | > 100 µM (inactive) | > 100 µM (inactive) |  |
| COC1=C(C)C(=O)c2c(c(COC(N)=O)c3n2CC2C3N2C)C1=O (stereo not drawn) | < 0.01 µM (active) | 0.0519 µM (active) | < 0.01 µM (active) | < 0.01 µM (active) | 0.0154 µM (active) | 0.0296 µM (active) | 0.0425 µM (active) | 0.051 µM (active) | < 0.01 µM (active) | 0.168 µM (active) | 0.019 µM (active) | 0.0766 µM (active) | 0.0256 µM (active) | 0.0313 µM (active) | < 0.0191 µM (active) | < 0.01 µM (active) | < 0.0113 µM (active) | < 0.0107 µM (active) | < 0.0145 µM (active) |  |
| Oc1c(OCc2nnc(CCCCCCCCc3nnc(COc4ccc5ccccc5c4O)o3)o2)ccc2ccccc12 | 16.6 µM (inactive) | > 100 µM (inactive) | 57.3 µM (inactive) | > 100 µM (inactive) |  |  |  | 91.6 µM (inactive) | > 100 µM (inactive) | 91.8 µM (inactive) | > 100 µM (inactive) | > 100 µM (inactive) |  | > 100 µM (inactive) |  | > 100 µM (inactive) | > 100 µM (inactive) | > 100 µM (inactive) | 59.6 µM (inactive) | > 100 µM (inactive) |
| Cc1ccc2c(/C=C/c3ccc(N(C)C)cc3)ccc(C(C)C)cc1-2 | > 100 µM (inactive) | 83.4 µM (inactive) | > 100 µM (inactive) | > 100 µM (inactive) | 37.2 µM (inactive) | 12.9 µM (inactive) | > 100 µM (inactive) | > 100 µM (inactive) | > 100 µM (inactive) | > 100 µM (inactive) | > 100 µM (inactive) | > 100 µM (inactive) | > 100 µM (inactive) | > 100 µM (inactive) | > 100 µM (inactive) | > 100 µM (inactive) | > 100 µM (inactive) | 48.9 µM (inactive) | > 100 µM (inactive) |  |
| C[C@@H]1CCC2[C@@H](C)C(=O)O[C@@H]3C4C[C@@H]1[C@@]23OO[C@@]4(C)O (stereo partly drawn) | > 100 µM (inactive) | > 100 µM (inactive) | > 100 µM (inactive) | 58.7 µM (inactive) | 54.5 µM (inactive) |  | 19.7 µM (inactive) | > 100 µM (inactive) | > 100 µM (inactive) | > 100 µM (inactive) | 55.3 µM (inactive) |  | > 100 µM (inactive) | > 100 µM (inactive) | 82.8 µM (inactive) | > 100 µM (inactive) | > 100 µM (inactive) | > 100 µM (inactive) | 27.9 µM (inactive) | > 100 µM (inactive) |
| CC1=NN(c2ccccc2Cl)C2(C1)SCC(=O)N2c1nc2ccccc2s1 (stereo not drawn) | > 100 µM (inactive) | > 100 µM (inactive) | > 100 µM (inactive) | > 100 µM (inactive) |  |  | > 100 µM (inactive) | > 100 µM (inactive) | > 100 µM (inactive) | > 100 µM (inactive) | > 100 µM (inactive) | > 100 µM (inactive) | > 100 µM (inactive) | > 100 µM (inactive) | > 100 µM (inactive) | > 100 µM (inactive) | > 100 µM (inactive) | > 100 µM (inactive) | > 100 µM (inactive) | > 100 µM (inactive) |
